Reference: article PMC10329651, “ATPase activity of DFCP1 controls selective autophagy” (Nature Communications, 2023)

Columns and labels:
[1] = molecular target: T1, DFCP1-FL (Homo sapiens, UniProt Q9HBF4); assay: malachite green phosphate release (Biomol Green); type: biochemical; settings: 0.5 mM ATP, 10 mM MgCl2, 10 µM ZnCl2, pH 7.5, 37 °C, 30 min; with and without liposomes
T1 construct: gene ZFYVE1; full length, His6-tagged, Sf9 baculovirus
T1 sequence (Q9HBF4 1-777): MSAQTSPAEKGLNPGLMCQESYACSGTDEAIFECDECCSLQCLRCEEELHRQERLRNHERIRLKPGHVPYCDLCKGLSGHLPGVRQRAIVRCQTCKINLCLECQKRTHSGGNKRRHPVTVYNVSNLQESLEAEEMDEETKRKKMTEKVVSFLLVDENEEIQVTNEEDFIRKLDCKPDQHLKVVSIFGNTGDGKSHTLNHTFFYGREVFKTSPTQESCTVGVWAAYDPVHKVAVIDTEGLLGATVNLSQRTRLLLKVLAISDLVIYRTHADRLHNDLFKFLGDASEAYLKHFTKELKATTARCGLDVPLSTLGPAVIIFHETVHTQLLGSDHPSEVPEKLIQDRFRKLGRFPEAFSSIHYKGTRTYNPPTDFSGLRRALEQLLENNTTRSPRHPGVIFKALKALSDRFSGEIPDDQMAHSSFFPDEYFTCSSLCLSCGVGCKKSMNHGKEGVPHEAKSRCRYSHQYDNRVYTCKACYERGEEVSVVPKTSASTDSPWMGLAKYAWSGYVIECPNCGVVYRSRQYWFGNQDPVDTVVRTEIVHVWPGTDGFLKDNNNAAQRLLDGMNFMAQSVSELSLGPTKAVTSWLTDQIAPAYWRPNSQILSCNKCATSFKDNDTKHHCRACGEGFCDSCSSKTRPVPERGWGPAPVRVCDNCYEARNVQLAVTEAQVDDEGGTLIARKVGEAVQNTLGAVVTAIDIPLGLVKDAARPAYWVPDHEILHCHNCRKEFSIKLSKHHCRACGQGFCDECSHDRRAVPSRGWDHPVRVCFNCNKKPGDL

[2] = molecular target: T2, DFCP1 WT (aa 1–410) (Homo sapiens, UniProt Q9HBF4); assay: size exclusion chromatography, nucleotide-dependent dimerization; type: binding; settings: 400 µM nucleotide, 50 mM MgCl2; non-hydrolysable ATP analogue
T2 construct: gene ZFYVE1; N-terminal ATPase domain, aa 1-410, His6-MBP fusion (pET-His6-MBP-TEV-LIC, E. coli Rosetta2(DE3))
T2 sequence (Q9HBF4 1-410): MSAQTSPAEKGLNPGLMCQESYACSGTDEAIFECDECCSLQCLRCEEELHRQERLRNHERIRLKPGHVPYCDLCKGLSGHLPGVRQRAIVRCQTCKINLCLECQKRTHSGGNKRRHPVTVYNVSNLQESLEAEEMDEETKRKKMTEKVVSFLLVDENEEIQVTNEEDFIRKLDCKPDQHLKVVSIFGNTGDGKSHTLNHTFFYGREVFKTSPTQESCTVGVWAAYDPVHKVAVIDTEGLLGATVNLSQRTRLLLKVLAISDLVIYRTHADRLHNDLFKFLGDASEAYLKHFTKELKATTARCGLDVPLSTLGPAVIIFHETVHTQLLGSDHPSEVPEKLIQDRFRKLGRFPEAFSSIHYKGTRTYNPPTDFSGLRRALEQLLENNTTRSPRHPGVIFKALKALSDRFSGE

[3] = molecular target: the molecule itself; assay: SEC; protein loaded with 400 µM ATPγS for 20 min at RT in exchange buffer (50 mM Tris, 150 mM NaCl, 50 mM MgCl2, 10% glycerol, 1 mM TCEP); Superdex 200 Increase 10/300 GL, isocratic elution at 4 °C, 0.25 ml/min; molecular weights relative to a Bio-Rad gel filtration standard

Molecule: Nc1ncnc2c1ncn2[C@@H]1O[C@H](COP(=O)(O)OP(=O)(O)OP(=O)(O)O)[C@@H](O)[C@H]1O [ATP]
- malachite green phosphate release (Biomol Green) [1]: Addition of liposomes to purified full-length DFCP1 resulted in a modest, but significant increase

Molecule: Nc1ncnc2c1ncn2[C@@H]1O[C@H](COP(=O)(O)OP(=O)(O)OP(O)(O)=S)[C@@H](O)[C@H]1O [ATPγS]
- size exclusion chromatography, nucleotide-dependent dimerization [2]: ADP-bound DFCP1 migrated as a monomer, ATPγS-loaded DFCP1 migrated as dimer

B1: His6-MBP-DFCP1 WT (aa 1-410) (domain or fragment, UniProt Q9HBF4 1-410, looked up)
chain: MSAQTSPAEKGLNPGLMCQESYACSGTDEAIFECDECCSLQCLRCEEELHRQERLRNHERIRLKPGHVPYCDLCKGLSGHLPGVRQRAIVRCQTCKINLCLECQKRTHSGGNKRRHPVTVYNVSNLQESLEAEEMDEETKRKKMTEKVVSFLLVDENEEIQVTNEEDFIRKLDCKPDQHLKVVSIFGNTGDGKSHTLNHTFFYGREVFKTSPTQESCTVGVWAAYDPVHKVAVIDTEGLLGATVNLSQRTRLLLKVLAISDLVIYRTHADRLHNDLFKFLGDASEAYLKHFTKELKATTARCGLDVPLSTLGPAVIIFHETVHTQLLGSDHPSEVPEKLIQDRFRKLGRFPEAFSSIHYKGTRTYNPPTDFSGLRRALEQLLENNTTRSPRHPGVIFKALKALSDRFSGE
notes: Loaded with ADP or ATPγS before size exclusion chromatography; dimer with ATPγS, monomer with ADP; The vector has a TEV site, but no cleavage is described; also called DFCP1 N-terminus; DFCP1 ATPase domain; not shown: His6, N-terminal, kept; MBP, N-terminal, kept
- stoichiometry N [3]: 2
